The nature of data set [1]: Anti-hepatic fibrosis activity in human LX2 cells assessed as inhibition of COL1A1 promoter activity at 25 micromol/L by luciferase reporter assay relative to control. Format: functional. Conditions: LX-2, dose 25 µmol/L.
Data set [2] concerns LX-2. The experiment in a line: Anti-hepatic fibrosis activity in human LX2 cells assessed as inhibition of TGF-beta1 induced COL1A1 mRNA expression at 3 micromol/L incubated for 24 hrs by qPCR analysis. Format: functional, cell-based. Conditions: dose 3.0 µmol/L.
Data set [3] concerns LX-2. Put plainly: Anti-hepatic fibrosis activity in human LX2 cells assessed as inhibition of TGFbeta1-induced COL1A1 protein expression at 3 uM incubated for 24 hrs by western blot analysis. Format: functional, cell-based. (In general: Immunoblotting shows a protein as a band on a membrane.)
Data set [4] concerns LX-2. The experiment in a line: Anti-hepatic fibrosis activity in human LX2 cells assessed as inhibition of TGFbeta1-induced FN protein expression at 3 uM incubated for 24 hrs by western blot analysis. Format: functional, cell-based.
Data set [5] relates to LX-2. Put plainly: Anti-hepatic fibrosis activity in human LX2 cells assessed as inhibition of TGFbeta1-induced alpha-SMA protein expression at 3 uM incubated for 24 hrs by western blot analysis. Format: functional, cell-based.
Data set [6] relates to LX-2. The experiment in a line: Anti-hepatic fibrosis activity in human LX2 cells assessed as inhibition of TGFbeta1-induced TIMP-1 protein expression at 3 uM incubated for 24 hrs by western blot analysis. Format: functional, cell-based.
Data set [7] concerns AML12. The experiment in a line: Cytotoxicity against mouse AML12 cells assessed as mortality rate at 1 to 30 uM incubated for 24 hrs by Sulfonyl Rhodamine B assay. Format: toxicity, cell-based. Conditions: aml12, 24 h, dose 1-30 µM.
Data set [8] in a line: Inhibition of JAK1/STAT1/STAT3 signaling pathway in human LX2 cells assessed as decrease in TGF-beta induced STAT1 phosphorylation level at 1 uM incubated for 24 hrs by Western blot analysis. Type of data set: cell-based.
The nature of data set [9]: Inhibition of JAK1/STAT1/STAT3 signaling pathway in human LX2 cells assessed as decrease in TGF-beta induced JAK1 phosphorylation level at 1 uM incubated for 24 hrs by Western blot analysis. Format: cell-based.
Data set [10] is described as follows: Inhibition of JAK1/STAT1/STAT3 signaling pathway in human LX2 cells assessed as decrease in TGF-beta induced STAT3 phosphorylation level at 1 uM incubated for 24 hrs by Western blot analysis. Format: cell-based.
Data set [11] can be described thus: Cytotoxicity against human LX2 cells assessed as mortality rate at 1 to 30 uM incubated for 24 hrs by Sulfonyl Rhodamine B assay. Conditions: lx-2, 24 h, dose 1-30 µM. Format: toxicity, cell-based.

Each structure is given as a SMILES string. Active and inactive are the calls of the source. The rule behind the calls is not given here.

Regarding `O=S(=O)(Nc1ccccc1CNc1cc(Cl)c(Cl)c(Cl)c1)c1cccc(OC(F)(F)F)c1`, in data set [1], the inhibition (usually how much of the control response was suppressed) at 25 µM was determined as 33.5%. Turning to `CC[C@H]1[C@@H](O)[C@@H]2[C@H](CC[C@]3(C)[C@@H]([C@H](C)CCC(=O)O)CC[C@@H]23)[C@@]2(C)CC[C@@H](O)C[C@@H]12` [OBETICHOLIC ACID], the inhibition at 25 µM in [1] came to 7.9%. As to `O=[N+]([O-])c1cccc(S(=O)(=O)Nc2ccccc2CNc2cc(Cl)c(Cl)c(Cl)c2)c1`, the inhibition entry in data set [2] is “Active”. The inhibition at 25 µM in data set [1] is 42.3%. In the case of `O=[N+]([O-])c1ccc(S(=O)(=O)Nc2ccccc2CNc2ccc(F)c(Cl)c2)cc1`, the inhibition at 25 µM in data set [1] amounted to 34.2%. Regarding `O=[N+]([O-])c1ccc(S(=O)(=O)Nc2ccccc2CNc2cc(Cl)ccc2Cl)cc1`, the inhibition result in [3], in data set [4], in data set [2], in data set [5] and in data set [6] was “Active” throughout. Also, the inhibition at 25 µM in data set [1] amounted to 32.3%. As to `O=[N+]([O-])c1cccc(S(=O)(=O)Nc2ccccc2CNc2cc(F)ccc2Cl)c1`, in [1], the inhibition at 25 µM is 29.8%. Turning to `O=C(Nc1ccc(Cl)cc1)Nc1ccccc1NS(=O)(=O)c1ccc([N+](=O)[O-])cc1`, the inhibition at 25 µM in data set [1] is 23.6%. `Cc1ccc(NCc2ccccc2NS(=O)(=O)c2cccc([N+](=O)[O-])c2)cc1`: the inhibition at 25 µM in data set [1] turned out to be 14.7%. Consider `O=[N+]([O-])c1cccc(S(=O)(=O)Nc2ccccc2CNc2cc(Cl)ccc2Cl)c1`, for which the inhibition at 25 µM in [1] came to 40%. On to `COc1ccc(NC(=O)Nc2ccccc2NS(=O)(=O)c2cccc([N+](=O)[O-])c2)cc1`, for which the inhibition at 25 µM in data set [1] worked out at 25.4%.

For `O=S(=O)(Nc1ccccc1CNc1cc(Cl)c(Cl)c(Cl)c1)c1ccc(OC(F)(F)F)cc1`, in [1], the inhibition at 25 µM was determined as 42.4%. For `O=C(Nc1ccc(C(F)(F)F)cc1)Nc1ccccc1NS(=O)(=O)c1cccc([N+](=O)[O-])c1`, the inhibition at 25 µM in data set [1] worked out at 17.8%.

Regarding `O=C(Nc1ccc(Cl)cc1)Nc1ccccc1NS(=O)(=O)c1cccc([N+](=O)[O-])c1`, the inhibition at 25 µM in [1] stood at 21.9%.

For the molecule `O=[N+]([O-])c1ccc(S(=O)(=O)Nc2ccccc2CNc2cc(Cl)c(Cl)c(Cl)c2)cc1`, the inhibition result in data set [3], in data set [4], in data set [2], in [5] and in data set [6] was “Active” throughout. The inhibition at 25 µM in data set [1] is 48.7%. As for `O=C(Nc1cccc(C(F)(F)F)c1)Nc1ccccc1NS(=O)(=O)c1cccc([N+](=O)[O-])c1`, the inhibition at 25 µM in [1] came to 22.8%.

On to `O=C(Nc1cc(C(F)(F)F)ccc1Cl)Nc1ccccc1NS(=O)(=O)c1ccc([N+](=O)[O-])cc1`, for which, in data set [1], the inhibition at 25 µM was determined as 39.4%. Consider `O=C(Nc1ccc(Cl)c(Cl)c1)Nc1ccccc1NS(=O)(=O)c1ccc([N+](=O)[O-])cc1`, for which the inhibition entry in data set [2] is “Active”. In addition, the inhibition at 25 µM in data set [1] was 28.5%. Turning to `O=C(Nc1ccc(C(F)(F)F)cc1)Nc1ccccc1NS(=O)(=O)c1ccc([N+](=O)[O-])cc1`, the inhibition at 25 µM in data set [1] was determined as 21.3%.

Consider `COc1ccc(C(F)(F)F)cc1NC(=O)Nc1ccccc1NS(=O)(=O)c1ccc([N+](=O)[O-])cc1`, for which the inhibition at 25 µM in data set [1] amounted to 21.5%. On to `O=C(Nc1ccccc1NS(=O)(=O)c1cccc([N+](=O)[O-])c1)c1ccc(Cl)cc1Cl`, for which the inhibition at 25 µM in data set [1] is 27.9%. As to `O=C(O[C@@H]1Cc2c(O)cc(O)cc2O[C@@H]1c1cc(O)c(O)c(O)c1)c1cc(O)c(O)c(O)c1` [EPIGALOCATECHIN GALLATE], the inhibition at 25 µM in data set [1] stood at 25.3%.

Take `O=C(Nc1ccc(Cl)cc1Cl)Nc1ccccc1NS(=O)(=O)c1cccc(OC(F)(F)F)c1`: the inhibition at 25 µM in data set [1] came out at 26.2%. With `O=[N+]([O-])c1ccc(S(=O)(=O)Nc2ccccc2CNc2cc(F)ccc2Cl)cc1`, the inhibition result in data set [3], in data set [4], in data set [5] and in [6] was “Active” each time. Also, in data set [1], the inhibition at 25 µM is 26%. As for `Cc1ccc(S(=O)(=O)Nc2ccccc2CNc2cc(Cl)c(Cl)c(Cl)c2)cc1`, the inhibition at 25 µM in data set [1] was 3.4%. On to `COc1ccc(C(F)(F)F)cc1NC(=O)Nc1ccccc1NS(=O)(=O)c1cccc([N+](=O)[O-])c1`, for which, in data set [1], the inhibition at 25 µM stood at 20.2%. `Cc1cccc(S(=O)(=O)Nc2ccccc2NC(=O)Nc2cc(Cl)c(Cl)c(Cl)c2)c1`: in data set [1], the inhibition at 25 µM was determined as 24.9%. For the molecule `O=C(Nc1ccccc1NS(=O)(=O)c1cccc([N+](=O)[O-])c1)c1ccc(F)c(Cl)c1`, the inhibition at 25 µM in data set [1] worked out at 37.1%.

With `O=S(=O)(Nc1ccccc1CNc1cc(Cl)c(Cl)c(Cl)c1)c1ccc(C(F)(F)F)cc1`, the inhibition at 25 µM in data set [1] turned out to be 42.4%. Still for that read-out and setting: as for `O=S(=O)(Nc1ccccc1CNc1cc(Cl)c(Cl)c(Cl)c1)c1cccc(C(F)(F)F)c1`, the figure is 37.3%.

With `COc1ccc(NC(=O)Nc2ccccc2NS(=O)(=O)c2ccc([N+](=O)[O-])cc2)cc1`, in data set [1], the inhibition at 25 µM was 14.5%.

On to `COc1cccc(S(=O)(=O)Nc2ccccc2NC(=O)Nc2cc(Cl)c(Cl)c(Cl)c2)c1`, for which, in data set [1], the inhibition at 25 µM stood at 16.9%. Same read-out and setting: for `COc1cccc(S(=O)(=O)Nc2ccccc2CNc2cc(Cl)c(Cl)c(Cl)c2)c1` the value was 11.9%; for `COc1cccc(S(=O)(=O)Nc2ccccc2NC(=O)c2cc(Cl)c(Cl)c(Cl)c2)c1`, 1.5%; for `O=C(Nc1ccc(Cl)c(Cl)c1)Nc1ccccc1NS(=O)(=O)c1cccc([N+](=O)[O-])c1`, 21.6%. `O=S(=O)(Nc1ccccc1CNc1cc(Cl)c(Cl)c(Cl)c1)c1ccc(Cl)cc1`: in [1], the inhibition at 25 µM is 31.7%. Still for that read-out and setting: for `COc1ccc(S(=O)(=O)Nc2ccccc2CNc2cc(Cl)c(Cl)c(Cl)c2)cc1` the value was 1.2%; for `C=C1C(=O)O[C@@H]2/C=C(\C)CC/C=C(\C)CC[C@@H]12` [COSTUNOLIDE], 45.4%. On to `O=C(Nc1ccccc1NS(=O)(=O)c1ccc([N+](=O)[O-])cc1)c1cc(Cl)ccc1Cl`, for which the inhibition at 25 µM in [1] was 26.5%.

Regarding `Cc1cccc(S(=O)(=O)Nc2ccccc2CNc2cc(Cl)c(Cl)c(Cl)c2)c1`, the inhibition at 25 µM in data set [1] is 2.2%. On the same count and under the same terms, for `O=S(=O)(Nc1ccccc1CNc1cc(Cl)c(Cl)c(Cl)c1)c1cccc(Cl)c1` the value was 33.4%; for `O=C(Nc1ccc(Cl)cc1Cl)Nc1ccccc1NS(=O)(=O)c1cccc([N+](=O)[O-])c1`, 29.8%; for `COc1cccc(NCc2ccccc2NS(=O)(=O)c2cccc([N+](=O)[O-])c2)c1`, 23.2%. `O=C(Nc1ccccc1NS(=O)(=O)c1ccc([N+](=O)[O-])cc1)c1ccc(Cl)c(Cl)c1`: the inhibition entry in data set [3], in [4], in data set [2], in data set [5] and in data set [6] was “Active” in each case. Further, the inhibition at 25 µM in data set [1] came out at 49.3%. As to `O=C(Nc1ccc(Cl)cc1Cl)Nc1ccccc1NS(=O)(=O)c1ccc([N+](=O)[O-])cc1`, the inhibition at 25 µM in data set [1] amounted to 25.8%. Turning to `O=C(Nc1cccc(C(F)(F)F)c1)Nc1ccccc1NS(=O)(=O)c1ccc([N+](=O)[O-])cc1`, in data set [1], the inhibition at 25 µM worked out at 22.9%.

With `O=C(Nc1cc(Cl)c(Cl)c(Cl)c1)c1ccccc1NS(=O)(=O)c1cccc([N+](=O)[O-])c1`, the Activity entry in [7] and in [11] was “Non-Toxic” throughout. The inhibition result in data set [2], in data set [8], in data set [9] and in data set [10] was “Active” throughout. The inhibition at 25 µM in data set [1] came to 35.9%. For the molecule `O=C(Nc1ccccc1NS(=O)(=O)c1ccc([N+](=O)[O-])cc1)c1ccc(Cl)cc1Cl`, in data set [1], the inhibition at 25 µM turned out to be 33%. With `Cc1cccc(S(=O)(=O)Nc2ccccc2NC(=O)c2cc(Cl)c(Cl)c(Cl)c2)c1`, the inhibition at 25 µM in [1] worked out at 15.3%. Consider `O=C(Nc1ccccc1NS(=O)(=O)c1cccc([N+](=O)[O-])c1)c1cc(Cl)ccc1Cl`, for which the inhibition at 25 µM in data set [1] turned out to be 24.6%. Consider `O=C(Nc1ccccc1NS(=O)(=O)c1cccc([N+](=O)[O-])c1)c1ccc(Cl)c(Cl)c1`, for which, in [1], the inhibition at 25 µM came to 30.9%.

Consider `O=[N+]([O-])c1cccc(S(=O)(=O)Nc2ccccc2CNc2ccc(F)c(Cl)c2)c1`, for which the inhibition at 25 µM in data set [1] was 24.1%. Regarding `O=C(Nc1cc(C(F)(F)F)ccc1Cl)Nc1ccccc1NS(=O)(=O)c1cccc([N+](=O)[O-])c1`, in data set [1], the inhibition at 25 µM amounted to 21.3%.

Turning to `COc1ccc(C(=O)Nc2ccccc2NS(=O)(=O)c2cccc([N+](=O)[O-])c2)cc1`, in data set [1], the inhibition at 25 µM turned out to be 33.6%.

For the origin of these results see ChEMBL document CHEMBL5257100, “Discovery and development of benzene sulfonamide derivatives as anti-hepatic fibrosis agents” (Bioorg Med Chem Lett, 2023).
